# Experimental data from patent publication US20250073245A1, “COMPOSITION AND METHOD OF TREATING HYPOGONADISM IN MEN” (priority 2023, published 2025).
# Where “and” joins values, the source holds several entries; their conditions need not be identical. Equal values may be shown once. Read-outs that look alike come from different tables or passages of the source.
# Tests used:
# hypogonadism in men = test: Study of testosterone cypionate injections every 7 days (with anastrozole) in men, followed by blood work until stabilization; type: in vivo, human; details: for TT at week 5 / TT once stable: average total testosterone; for increase in PSA from start of treatment to stabilization / PSA level at stabilization / Hemoglobin at 5 weeks / Hemoglobin at stabilization: average; for average decrease in A1c: TC and anastrozole dosing
# Text: Patient hemoglobin and total testosterone (TT) levels were used in this Study to determine when a patient becomes “stable” on treatment. The terms “stable”, “stability”, “stabilized” and “stabilization” are defined in this Study as “the point at which a patient's symptoms have resolved, polycythemia has stopped, and TC dosage has remained consistent for at least 3 months.” Polycythemia associated with testosterone replacement therapy (TRT) has commonly been controlled through frequent patient blood donation. […] Several TT “normal” ranges can be found in the literature. For example, the Endocrine Society identifies the normal range for TT levels in males to be 264-916 ng/dL (1,17). However, LabCorp Diagnostics has used the previously accepted “normal” range of 348-1197 ng/dL until 2017 and Quest Diagnostics uses a reference range of 250-1110 ng/dL.
# Patients' responses to TC injections administered every 7 days were tracked and the resulting effects of TC dosing on cholesterol, A1c, and PSA levels were documented once stable TT levels were reached.
# Subjects: Two cohorts were studied. The two cohorts studied were males that had previously been on TRT and males who had never been on any form of TRT. Blood work was collected from all patients at their initial visit, after 1 month of treatment, after 3 months of treatment, and then at 6 months, 9 months, 12 months, etc. as patients continued treatment. Data was collected for each cohort including the length of time that it took to stabilize on treatment and the average dosage injected weekly once patients had reached stabilization.
# However, in this Study TC injections were administered every 7 days, and blood samples were collected at 7 days post-TC injection and after at least 4 consecutive weeks of injections. […] Collecting blood samples at the 4-week mark provides more consistent, accurate, and useful information regarding the TT blood level than if the samples are collected earlier.
# Blood samples were then sent to an outsourced laboratory, Lab Tech Diagnostics. Samples were drawn at the patient's initial visit, after their first 4 consecutive TC injections, after 3 months of treatment, and at 3-month intervals thereafter. Testosterone, estradiol, and hemoglobin levels were tracked with every blood sample. PSA and cholesterol levels were checked every 3 months. A1c levels were checked with initial blood work, and then once per year if A1c was within normal limits (WNL) or every 3 months if A1c was >5.6.
# Given, the primary goal was to determine a stabilization point such that the patient achieved maximum benefit with minimal side effects (e.g., elimination of polycythemia) from the treatment, the challenge was to identify a TC dose at which the patient's hemoglobin stopped increasing. […] Patients were advised to start 81 mg aspirin daily if their hemoglobin started increasing after starting treatment. […] Dosage adjustments of TC were made in 20 mg (0.1 ml) increments. Assessment of new dosages were not made until after four consecutive injections at the new dose and at 7 days after their last injection. After analysis of data, there were notable similarities in the Total Testosterone, estradiol, and hemoglobin levels once patients reached stabilization on treatment. There were also differences seen between patients that had been on TRT in the past through other clinics and those that started treatment with our clinic. Patients who had previously been on TRT took longer to stabilize on therapy than those who had never been on TRT.
# [1] = well-known value; cited from earlier work
# [2] = in humans; cited from earlier work
# [3] = patients never on TRT, starting TT level 347.77 ng/dl
# [4] = patients previously on TRT, starting TT level 479.83 ng/dl
# [5] = patients never on TRT, initial 15.06 g/dl
# [6] = patients previously on TRT, initial 15.78 g/dl
compound,measurement,setting,value
"C[C@]12CC[C@H]3[C@@H](CCC4=CC(=O)CC[C@@]43C)[C@@H]1CC[C@@H]2OC(=O)CCC1CCCC1 [TC, testosterone cypionate]",symptoms at low 7-day testosterone level,hypogonadism in men; 7-day testosterone level <600,almost all patients were still experiencing symptoms of testicular hypofunction
same,patients who developed prostate cancer,hypogonadism in men; 60 patients in the study,No patients
same,common increase in cholesterol levels seen with excessive TC dosing,hypogonadism in men; TC and anastrozole dosing as described in the study,Elimination
same,side effects seen at higher TT levels,hypogonadism in men; TT levels >1050,"acne, aggression, erectile dysfunction, difficulty losing weight, extremely elevated estradiol levels, hair loss, and increased body hair"
same,TT level at which patients stabilized (range),"hypogonadism in men; all patients in the study, drawn 7 days after injection",605 to 1051 ng/dL
same,TT at week 5,hypogonadism in men; [3],705.43 ng/dL
same,TT once stable,hypogonadism in men; [3],794.53 ng/dL
same,TT at week 5,hypogonadism in men; [4],805.9 ng/dL and 805.90 ng/dL
same,TT once stable,hypogonadism in men; [4],780.1 ng/dL and 780.10 ng/dL
same,increase in PSA from start of treatment to stabilization,hypogonadism in men; patients never on TRT,26.89%
same,PSA level at stabilization,"hypogonadism in men; patients never on TRT, initial 0.859 ng/ml",1.090 ng/mL
same,Hemoglobin at 5 weeks,hypogonadism in men; [5],15.33 g/dL
same,Hemoglobin at stabilization,hypogonadism in men; [5],15.79 g/dL
same,increase in PSA from start of treatment to stabilization,hypogonadism in men; patients previously on TRT,14.36%
same,PSA level at stabilization,"hypogonadism in men; patients previously on TRT, initial 1.017 ng/ml",1.163 ng/mL
same,Hemoglobin at 5 weeks,hypogonadism in men; [6],16.22 g/dL
same,Hemoglobin at stabilization,hypogonadism in men; [6],15.70 g/dL
same,side effects when not consistent with both TC and anastrozole dosing,hypogonadism in men; inconsistent timing and dosage,"frequently experienced acne, mood swings, and elevating hemoglobin"
same,polycythemia (need to donate blood),hypogonadism in men; once a patient reached stability on treatment,eliminated
same,chief complaints/symptoms (Table 1) as reported by the patient,hypogonadism in men; once stable on treatment,well-controlled
same,average decrease in A1c,hypogonadism in men; patients not previously on TRT,0.39%
same,average time longer to stabilize,hypogonadism in men; patients previously on TRT in any form versus patients never on TRT,9.7 months
same,average decrease in A1c,hypogonadism in men; patients previously on TRT,0.14%
same,TT level at stabilization (range),hypogonadism in men; patients never on TRT,641 to 1051 ng/dL
same,TT level at stabilization (range),hypogonadism in men; patients previously on TRT,605 to 1020 ng/dL
same,half-life,[1],170 to 190 h
CC(C)(C#N)c1cc(Cn2cncn2)cc(C(C)(C)C#N)c1 [anastrozole],side effects when anastrozole was started at the beginning of treatment,hypogonadism in men; in vivo,frequently experienced hot flashes or joint pains
same,half-life,[2],30 to 60 h
CC(=O)Oc1ccccc1C(=O)O [aspirin],effect of adding aspirin on hemoglobin levels,"hypogonadism in men; 81 mg daily, patients on TC whose hemoglobin started increasing",helped to either decrease hemoglobin levels or slow the rate of increase of hemoglobin levels
